Test results as given in patent publication US8354387B2, “Methods and compositions for delivering siRNA into mammalian cells” (Centre National de la Recherche Scientifique, priority 2004, dated 2013).

Legend:
[1] = test system: single- and double-stranded oligonucleotides (DNA); details: cited from earlier work
[2] = test system: human fibroblasts (Hs68) or HeLa cells; experiment: Delivery of pRL-SV40 luciferase plasmid with inhibitors of the endosomal pathway or at 4° C.; format: cell-based
Method: FIG. 1: MPG-mediated gene delivery in the presence of inhibitors of the endosomal pathway. A/ MPG/DNA complexes formed at a charge ratio of 5/1 with 100 ng pRL-SV40 plasmid encoding the reporter gene luciferase were overlaid onto human fibroblasts (Hs68) in the presence of either bafilomycin A (Baf-A: 150 nM), cytochalasin B (Cy-B: 50 μg/ml) or chloroquine (Chi: 100 μM). After 48 hrs cell extracts were prepared and luciferase activity was measured and reported as a function of total protein (black). Similar experiments were performed using a lipid-based delivery system, Lipofectamine™, as a control (white). Experiments in the absence of inhibitors were also performed using an MPG peptide lacking a C-terminal cysteamide group (grey). B/ A 36mer fluorescein labelled oligonucleotide was complexed with MPG at a charge ratio of 5/1. Complexes were then overlaid onto cultured Hela cells in the presence of bafilomycin A (middle panel) or cytochalasin B (bottom panel) and cellular localization of the oligonucleotide was monitored by fluorescence microscopy on living cells 1 hr after transfection. A control experiment with free oligonucleotide is shown in the top panel.
Hs68, Cos-7 and HeLa cell lines were cultured in Dulbecco's Modified Eagle's Medium supplemented with 2 mM glutamine, 1% antibiotics (streptomycin 10 000 μg/ml, penicillin, 10,000 IU/ml) and 10% (w/v) fetal calf serum (FCS) at 37° C. in a humidified atmosphere containing 5% CO2 as described previously (18). For MPG or MPG^ΔNLS-mediated gene delivery, peptide carrier/DNA complexes were formed in DMEM or PBS (500 μl of DMEM containing 100 ng of DNA complexed with MPG at a charge ratio 5:1) and incubated for 30 min at 37° C. Cells grown to 60% confluence were then overlaid with these preformed complexes. […]
For cell cycle-dependent studies, Hs68 fibroblasts were synchronized by serum deprivation for 40 hrs, then restimulated to enter the cycle and grow into early G1 for 4 hrs by addition of fresh DMEM supplemented with 20% FCS, and incubated in the presence of MPG/DNA complexes as described above. Luciferase activity was monitored as described previously (19) and control transfection experiments were performed using Lipofectamine™. […]
A plasmid encoding the reporter gene luciferase, pRL-SV40, was associated with MPG carrier at a charge ratio of 5:1 (MPG/DNA) and overlaid onto cultured human fibroblasts (Hs68) or HeLa cells in the presence of either bafilomycin A (150 nM), chloroquine (100 μM) or cytochalasin B (50 μg/ml). Transfection efficiency was monitored 30 hrs after transfection and Lipofectamine™ was used as a standard control method for transfection. […]

importin α = experiment: In vitro binding of carrier/DNA complexes to immobilized GST-importin α; details: 1 hr at 25° C., agarose gel
Method: FIG. 2: The NLS of MPG is essential for nuclear translocation: A/ Purified GST-importin α and β were coupled onto GST Sepharose resin and incubated in batch with MPG/DNA or MPG^ΔNLS/DNA complexes for 1 hr, extensively washed and incubated with […] glutathione to elute the complexes. DNA was then extracted and analyzed by agarose gel electrophoresis (0.8%). […] B/ Delivery of pRL-SV40 plasmid: MPG/DNA (black boxes) or MPG^ΔNLS/DNA (grey boxes) complexes formed at a charge ratio of 5/1 with 100 ng pRL-SV40 plasmid encoding the reporter gene luciferase were overlaid onto synchronized or arrested (-FCS) human fibroblasts (Hs68). Luciferase activity was monitored 12 hrs and 24 hrs after release from synchrony, or after 24 hrs for arrested cells and 48 hrs for asynchronous cells. […]
Plasmids for the expression of recombinant GST-fusion protein importin α and importin β were kindly provided by B. Cullen. […] DNA was then extracted from the complexes with phenol-chloroform, followed by ethanol precipitation, and finally analyzed by agarose gel electrophoresis (0.8%).
MPG peptide is derived from the nuclear localization sequence of the SV 40 large T antigen and from the fusion peptide domain of HIV-1 gp41 protein (17). […] Then, both bound and unbound fractions were analyzed by agarose gel electrophoresis.

## GALFLGFLGAAGSTMGAWSQPKKKRKV (carrier peptide) [MPG, bipartite amphipathic peptide derived from fusion peptide domain of HIV-1 gp41 and NLS of SV40 large T antigen]
[1]
  affinity for single-stranded relative to double-stranded oligonucleotides: at least 2 fold
[2]; 36mer fluorescein oligonucleotide, charge ratio 5/1, Hela cells, after one hour
  localization of fluorescently labelled oligonucleotide in presence of inhibitors: localized to the nucleus and to cytoplasm of the cells
[2]; chloroquine 100 μM, pRL-SV40
  increase of efficiency by chloroquine: 10%
[2]; pRL-SV40, charge ratio 5:1, bafilomycin A 150 nM, cytochalasin B 50 μg/ml
  transfection efficiency in presence of bafilomycin A or cytochalasin B: not affected
[2]; transfection performed at 4° C.
  reduction of transfection efficiency at 4° C.: 12 fold
Importin α
  interaction of carrier/DNA complex with importin α: significantly interacted specifically with importin α

## GALFLGFLGAAGSTMGAWSQPKSKRKV (carrier peptide) [MPG^ΔNLS, MPG variant with single mutation of the second lysine residue in the NLS motif to serine]
Importin α
  interaction of carrier/DNA complex with importin α: dramatically reduced
